What is called Tmax is the time from dosing to the highest level.

We go through three molecules from US12129264B2, “Crystalline forms of a PAR4 inhibitor” (BRISTOL-MYERS SQUIBB COMPANY, priority 2018, dated 2024).

The nature of data set [1]: Microdissolution of co-crystals versus free form in FaSSIF (pION Microdissolution Profiler). It is filed as physicochemical. To be noted: for AUC (extent of dissolution), Mean / Dissolution Rate, Mean: FaSSIF pH 6.5, 15 mL at 37° C., 150 rpm, API powder 0.2 mg/mL, N = 4; for AUC (extent of dissolution), Mean: 180 min, trapezoidal rule. The method, then:
The dissolution of the N-1 form of the citric acid and the succinic acid co-crystals of the compound of formula (I) were tested against that of the free form of the compound of formula (I). The dissolution properties, rate and extent, and peak solubility were tested in FaSSIF (fasted state simulated intestinal fluid).
This experiment was performed on a pION Microdissolution Profiler™ an API sparing, low volume dissolution instrument with UV fiber optics (UVFO) probes to measure real-time dissolution profile in biorelevant media. The experimental was run under the following conditions: • Apparatus: plon Microdissolution profiler • Media: FaSSIF, pH 6.5 • Volume: 15 mL at 37° C. • Stirring: 150 rpm with small stirrer bar • Dose: API powder at 0.2 mg/mL or 3 mg/vial • Study duration: 180 min
Time points: several time points to capture initial dissolution rate and through 180 min (typical time for absorption)
The results were analyzed using UVFO Analysis: Standard curve range 0-3 μg/mL; 10 mm path length probe windows; detection wavelength 315 nm; slope ˜17 μg/mL/AU; R2=0.99.

A short description of data set [2]: Pharmacokinetic study of co-crystal capsules in the dog model. Format: in vivo. The settings on record: for Systemic absorption in the dog model: at relevant doses (5 mg capsule); for AUC0-24h, Mean / Cmax, Mean / Tmax: capsule, 5 mg/dog, pentagastrin pre-treated fasted male dogs, crossover in 4 dogs. Here is the method:
The co-crystals were tested using the following formulations: • 1. Succinic Acid co-crystal capsule (5 mg dose)—Pentagastrin pre-treated, fasted dogs • 2. Citric Acid co-crystal capsule (5 mg dose)—Pentagastrin pre-treated, fasted dogs
The Study Design is as follows:
Crossover in 4 fasted male dogs (˜10 kg); dose 5 mg/dog; flush with 50 mL water; 2-week washout between treatments; 8 blood sample points per treatments.

For the molecule “4-(4-(((6-Methoxy-2-(2-methoxyimidazo[2,1-b][1,3,4]thiadiazol-6-yl)benzofuran-4-yl)oxy)methyl)thiazol-2-yl)-N,N-dimethylbenzamide: citric acid co-crystal (1:1), form N-1 [Example 2]”, in data set [1], the “Dissolution in FaSSIF compared with the free form” value is given as “better than the free form”; the “AUC (extent of dissolution), Mean” value was 988.900 µg·min/mL; the “Dissolution Rate, Mean” value was determined as 0.584 µg/mL/min. Moreover, in data set [2], the “Systemic absorption in the dog model” value is reported as “measurable systemic absorption”; the “AUC0-24h, Mean” value was 161.61 ng·h/mL; the “Cmax, Mean” value is recorded as 29.28 ng/mL; the Tmax is 2.0 h.

Take “4-(4-(((6-Methoxy-2-(2-methoxyimidazo[2,1-b][1,3,4]thiadiazol-6-yl)benzofuran-4-yl)oxy)methyl)thiazol-2-yl)-N,N-dimethylbenzamide: succinic acid co-crystal (1:0.5) [Example 1]”: in data set [1], the “Dissolution in FaSSIF compared with the free form” value is “better than the free form”; the “AUC (extent of dissolution), Mean” value came to 272.622 µg·min/mL; the “Dissolution Rate, Mean” value turned out to be 0.144 µg/mL/min. Besides, in data set [2], the “Systemic absorption in the dog model” value is listed as “measurable systemic absorption”; the “AUC0-24h, Mean” value came out at 93.97 ng·h/mL; the “Cmax, Mean” value came to 12.22 ng/mL; the Tmax was 1.5 h.

As to `COc1cc(OCc2csc(-c3ccc(C(=O)N(C)C)cc3)n2)c2cc(-c3cn4nc(OC)sc4n3)oc2c1` [Free form, 4-(4-(((6-Methoxy-2-(2-methoxyimidazo[2,1-b][1,3,4]thiadiazol-6-yl)benzofuran-4-yl)oxy)methyl)thiazol-2-yl)-N,N-dimethylbenzamide], in data set [1], the “AUC (extent of dissolution), Mean” value was 0 µg·min/mL and the “Dissolution Rate, Mean” value was 0 µg/mL/min.
